Laboratory results: ChEMBL document CHEMBL3885861, “Open TG-GATES”

Organism: Rattus norvegicus
Experiment: Open TG-GATES - Regimen: Daily Repeat
Type: toxicity, organism-based, Sprague-Dawley
Parameters: regimen Daily Repeat, gender Male, age 6 weeks
Conditions: in vivo, po, 30 mg/kg, route gavage, dose level Low; for APTT / Bas / Eos / Fbg / Hb / Ht / Lym / MCH / MCHC / MCV / Mono / Neu / PT / Plat / RBC / Ret / WBC: tissue Blood; for KIDNEY_L / KIDNEY_R / KIDNEY_TOTAL: tissue Kidney; for LIVER: tissue Liver; for A/G / ALP / ALT / AST / BUN / CRE / Ca / Cl / DBIL / GLC / IP / K / LDH / Na / PL / RALB / TBIL / TC / TG / TP / gamma-GTP: tissue Plasma

SMILES: Cc1cccc(Nc2ccccc2C(=O)O)c1C [MEFENAMIC ACID]
- TERMINAL_BW (72 h, time 3 day): 232.8 g
- APTT (72 h, time 3 day): 19.8 s
- Bas (72 h, time 3 day): 0%
- Eos (72 h, time 3 day): 1%
- Fbg (72 h, time 3 day): 221.8 mg/dL
- Hb (72 h, time 3 day): 13.4 g/dL
- Ht (72 h, time 3 day): 38.3%
- Lym (72 h, time 3 day): 79.6%
- MCH (72 h, time 3 day): 21.4 pg
- MCHC (72 h, time 3 day): 35%
- MCV (72 h, time 3 day): 61.1 fL
- Mono (72 h, time 3 day): 2.4%
- Neu (72 h, time 3 day): 15.4%
- PT (72 h, time 3 day): 11.9 s
- Plat (72 h, time 3 day): 117.6 x10_4/uL
- RBC (72 h, time 3 day): 627.4 x10_4/ul
- Ret (72 h, time 3 day): 5.6%
- WBC (72 h, time 3 day): 94.5 x10_2/uL
- KIDNEY_L (72 h, time 3 day): 1 g
- KIDNEY_R (72 h, time 3 day): 1 g
- KIDNEY_TOTAL (72 h, time 3 day): 2 g
- LIVER (72 h, time 3 day): 10.6 g
- A/G (72 h, time 3 day): 1.6
- ALP (72 h, time 3 day): 1154.4 IU/L
- ALT (72 h, time 3 day): 36.2 IU/L
- AST (72 h, time 3 day): 66.2 IU/L
- BUN (72 h, time 3 day): 14.6 mg/dL
- CRE (72 h, time 3 day): 0.4 mg/dL
- Ca (72 h, time 3 day): 10.8 mg/dL
- Cl (72 h, time 3 day): 102 meq/L
- DBIL (72 h, time 3 day): 0.09 mg/dL
- GLC (72 h, time 3 day): 190.6 mg/dL
- IP (72 h, time 3 day): 7.8 mg/dL
- K (72 h, time 3 day): 4.2 meq/L
- LDH (72 h, time 3 day): 171.8 IU/L
- Na (72 h, time 3 day): 140 meq/L
- PL (72 h, time 3 day): 164.6 mg/dL
- RALB (72 h, time 3 day): 3.5 g/dL
- TBIL (72 h, time 3 day): 0.2 mg/dL
- TC (72 h, time 3 day): 91 mg/dL
- TG (72 h, time 3 day): 94.4 mg/dL
- TP (72 h, time 3 day): 5.6 g/dL
- gamma-GTP (72 h, time 3 day): 0.8 IU/L
- TERMINAL_BW ([…], time 7 day): 268.5 g
- TERMINAL_BW ([…], time 14 day): 312.8 g
- TERMINAL_BW ([…], time 28 day): 397.4 g
- APTT ([…], time 7 day): 19.2 s
- Bas ([…], time 7 day): 0%
- Eos ([…], time 7 day): 1.4%
- Fbg ([…], time 7 day): 237 mg/dL
- Hb ([…], time 7 day): 14 g/dL
- Ht ([…], time 7 day): 39%
- Lym ([…], time 7 day): 80.4%
- MCH ([…], time 7 day): 22.2 pg
- MCHC ([…], time 7 day): 35.8%
- MCV ([…], time 7 day): 61.9 fL
- Mono ([…], time 7 day): 2%
- Neu ([…], time 7 day): 15%
- PT ([…], time 7 day): 11.8 s
- Plat ([…], time 7 day): 125.5 x10_4/uL
- RBC ([…], time 7 day): 629.6 x10_4/ul
- Ret ([…], time 7 day): 5.4%
- WBC ([…], time 7 day): 98.6 x10_2/uL
- APTT ([…], time 14 day): 19.6 s
- Bas ([…], time 14 day): 0%
- Eos ([…], time 14 day): 1%
- Fbg ([…], time 14 day): 224.2 mg/dL
- Hb ([…], time 14 day): 14.5 g/dL
- Ht ([…], time 14 day): 40.6%
- Lym ([…], time 14 day): 80%
- MCH ([…], time 14 day): 21.5 pg
- MCHC ([…], time 14 day): 35.7%
- MCV ([…], time 14 day): 60.3 fL
- Mono ([…], time 14 day): 2.4%
- Neu ([…], time 14 day): 15.4%
- PT ([…], time 14 day): 12.1 s
- Plat ([…], time 14 day): 117 x10_4/uL
- RBC ([…], time 14 day): 673.6 x10_4/ul
- Ret ([…], time 14 day): 4%
- WBC ([…], time 14 day): 93.1 x10_2/uL
- APTT ([…], time 28 day): 18.7 s
- Bas ([…], time 28 day): 0%
- Eos ([…], time 28 day): 1.2%
- Fbg ([…], time 28 day): 248.6 mg/dL
- Hb ([…], time 28 day): 15.6 g/dL
- Ht ([…], time 28 day): 43.9%
- Lym ([…], time 28 day): 81.8%
- MCH ([…], time 28 day): 20.4 pg
- MCHC ([…], time 28 day): 35.5%
- MCV ([…], time 28 day): 57.5 fL
- Mono ([…], time 28 day): 2.2%
- Neu ([…], time 28 day): 13%
- PT ([…], time 28 day): 12.1 s
- Plat ([…], time 28 day): 107.9 x10_4/uL
- RBC ([…], time 28 day): 764.2 x10_4/ul
- Ret ([…], time 28 day): 2.5%
- WBC ([…], time 28 day): 93.1 x10_2/uL
- KIDNEY_L ([…], time 7 day): 1.1 g
- KIDNEY_R ([…], time 7 day): 1.1 g
- KIDNEY_TOTAL ([…], time 7 day): 2.2 g
- KIDNEY_L ([…], time 14 day): 1.2 g
- KIDNEY_R ([…], time 14 day): 1.2 g
- KIDNEY_TOTAL ([…], time 14 day): 2.4 g
- KIDNEY_L ([…], time 28 day): 1.4 g
- KIDNEY_R ([…], time 28 day): 1.4 g
- KIDNEY_TOTAL ([…], time 28 day): 2.8 g
- LIVER ([…], time 7 day): 12.3 g
- LIVER ([…], time 14 day): 13.7 g
- LIVER ([…], time 28 day): 16.1 g
- A/G ([…], time 7 day): 1.6
- ALP ([…], time 7 day): 1054 IU/L
- ALT ([…], time 7 day): 38.2 IU/L
- AST ([…], time 7 day): 69.8 IU/L
- BUN ([…], time 7 day): 15 mg/dL
- CRE ([…], time 7 day): 0.4 mg/dL
- Ca ([…], time 7 day): 10.6 mg/dL
- Cl ([…], time 7 day): 102.8 meq/L
- DBIL ([…], time 7 day): 0.098 mg/dL
- GLC ([…], time 7 day): 222.6 mg/dL
- IP ([…], time 7 day): 7.2 mg/dL
- K ([…], time 7 day): 3.7 meq/L
- LDH ([…], time 7 day): 204.4 IU/L
- Na ([…], time 7 day): 140.2 meq/L
- PL ([…], time 7 day): 152.4 mg/dL
- RALB ([…], time 7 day): 3.5 g/dL
- TBIL ([…], time 7 day): 0.2 mg/dL
- TC ([…], time 7 day): 75.8 mg/dL
- TG ([…], time 7 day): 114.2 mg/dL
- TP ([…], time 7 day): 5.7 g/dL
- gamma-GTP ([…], time 7 day): 0.8 IU/L
- A/G ([…], time 14 day): 1.4
- ALP ([…], time 14 day): 881.8 IU/L
- ALT ([…], time 14 day): 33.4 IU/L
- AST ([…], time 14 day): 57.8 IU/L
- BUN ([…], time 14 day): 16 mg/dL
- CRE ([…], time 14 day): 0.4 mg/dL
- Ca ([…], time 14 day): 10.6 mg/dL
- Cl ([…], time 14 day): 103.4 meq/L
- DBIL ([…], time 14 day): 0.098 mg/dL
- GLC ([…], time 14 day): 205.2 mg/dL
- IP ([…], time 14 day): 7.1 mg/dL
- K ([…], time 14 day): 3.9 meq/L
- LDH ([…], time 14 day): 152.4 IU/L
- Na ([…], time 14 day): 140.8 meq/L
- PL ([…], time 14 day): 151.4 mg/dL
- RALB ([…], time 14 day): 3.3 g/dL
- TBIL ([…], time 14 day): 0.2 mg/dL
- TC ([…], time 14 day): 74.4 mg/dL
- TG ([…], time 14 day): 125 mg/dL
- TP ([…], time 14 day): 5.7 g/dL
- gamma-GTP ([…], time 14 day): 1 IU/L
- A/G ([…], time 28 day): 1.4
- ALP ([…], time 28 day): 696 IU/L
- ALT ([…], time 28 day): 32.8 IU/L
- AST ([…], time 28 day): 57.8 IU/L
- BUN ([…], time 28 day): 17.8 mg/dL
- CRE ([…], time 28 day): 0.5 mg/dL
- Ca ([…], time 28 day): 10.5 mg/dL
- Cl ([…], time 28 day): 103.8 meq/L
- DBIL ([…], time 28 day): 0.082 mg/dL
- GLC ([…], time 28 day): 227 mg/dL
- IP ([…], time 28 day): 6.6 mg/dL
- K ([…], time 28 day): 3.5 meq/L
- LDH ([…], time 28 day): 103.4 IU/L
- Na ([…], time 28 day): 141.2 meq/L
- PL ([…], time 28 day): 146.2 mg/dL
- RALB ([…], time 28 day): 3.5 g/dL
- TBIL ([…], time 28 day): 0.1 mg/dL
- TC ([…], time 28 day): 78.2 mg/dL
- TG ([…], time 28 day): 97 mg/dL
- TP ([…], time 28 day): 6.1 g/dL
- gamma-GTP ([…], time 28 day): 1.2 IU/L
